In the NIST ThermoML archive (doi:10.1016/j.jct.2014.05.008):

Details: 101.33 kPa, Liquid; for mass density: Vibrating tube method; for thermal conductivity: hot wire

CCCC[N+]1(C)CCCC1.N#CN=C=[N-] [1-butyl-1-methylpyrrolidinium dicyanamide]
Details	mass density [kg/m3]	thermal conductivity [W/m/K]
293.2 K	1018.3	–
293.5 K	–	0.155
303.2 K	1011.8	0.155
313.2 K	1006.1	–
313.3 K	–	0.153
323.2 K	1000.6	–
323.3 K	–	0.151
333.2 K	995.6	0.147
343.2 K	991.3	–
343.4 K	–	0.142

CCCCn1cc[n+](C)c1.N#CN=C=[N-] [1-butyl-3-methylimidazolium dicyanamide]
Details	mass density [kg/m3]	thermal conductivity [W/m/K]
293.2 K	1064.5	–
293.6 K	–	0.167
303.2 K	1057.5	–
303.3 K	–	0.166
313.2 K	1051	–
313.4 K	–	0.163
323.2 K	1045.1	–
323.5 K	–	0.163
333.2 K	1040.6	–
333.7 K	–	0.153
343.2 K	1035.7	–
344.2 K	–	0.15

CCn1cc[n+](C)c1.N#CN=C=[N-] [1-ethyl-3-methylimidazolium dicyanamide]
Details	mass density [kg/m3]	thermal conductivity [W/m/K]
293.2 K	1107.5	–
293.4 K	–	0.183
303.2 K	1100.4	–
303.3 K	–	0.179
313.1 K	–	0.178
313.2 K	1093.5	–
323 K	–	0.181
323.2 K	1087	–
333.2 K	1081	0.17
343.2 K	1076.1	–
343.4 K	–	0.165
